Results published in US20200216800A1, “CELL CULTURE MEDIUM FOR PRODUCING TARGET MATERIAL AT HIGH EFFICIENCY BY USING MAMMALIAN CELLS, CELL CULTURING METHOD USING SAME, AND METHOD OF PRODUCING TARGET MATERIAL” (priority 2015, published 2020).
Marks after values point to notes of the source that are not given here.

What was measured:
Format in all cases: cell-based, Chinese hamster
rCHO-1 cells [1] = experiment: Suspension culture of rCHO-1 cells: density of live cells, growth and longevity (hemocytometer, trypan blue dye exclusion)
Text: (§1) Two recombinant CHO DG44 cell lines (hereinafter referred to as “rCHo-1” and “rCHO-2”) were used for monoclonal antibody (mAB) production. Each cell line was passaged 8 times or more and suspension adapted in a protein-free medium (HY-PFM, in-house) or chemically defined medium (HY-CDM, in-house). The suspension-adapted cell line was used to evaluate how the concentrations of trace elements, the selection of an effective trace element, and the concentration of ZnSO4.7H2O (Zn) affected the growth of cells and the production of antibody in commercial chemically defined media.
(§2) The cell line was inoculated at a density of 4×10^5 cells/ml and cultured in an Erlenmeyer flask with a 30 ml/125 ml working volume on an orbital shaker at 120 rpm under humidified conditions at 37° C. and 5% CO2. Before inoculation, the cells were centrifuged at 1,000 rpm (×162 g) for 5 min, the supernatant was discarded, and the remaining cells were dispersed into single cells in the heated medium. The cells were passaged three times to minimize the influence of the remaining medium under the experimental conditions. The subcultured cells were evaluated.
The density of live cells was analyzed using a hemocytometer (Neubauer improved bright-line, Marienfeld, Germany), an inverted microscope (CK30, Olympus, Japan), and trypan blue dye exclusion.

rCHO-1 cells [2] = experiment: Suspension culture of rCHO-1 cells: antibody level by sandwich ELISA
Text: as §1, §2
4, 6, 8, 10, and 12 days after cells were inoculated under the experimental conditions, cell culture fluids were sampled, centrifuged at 1,000 rpm (×162 g) for 5 min, and stored at −20° C. before antibody analysis. Antibody levels were measured by sandwich enzyme linked immunosorbent assay (ELISA). For the detection of mAB by ELISA, anti-human IgG (Fab specific) (I5260, Sigma, St. Louis, Mo., USA) was used as a primary antibody and human IgG (Fc specific)-horseradish peroxidase (A0170, Sigma) was used as a chromogenic antibody. 1% (w/v) bovine serum albumin/phosphate buffered saline was used for blocking, 3,3′,5,5′-tetramethylbenzidine (TMB) solution (KPL, Gaithersburg, Md., USA) was used as a chromogenic reagent. The chromogenic reaction was stopped with 2 M H2SO4. For antibody level analysis, absorbance values were measured at a wavelength of 450 nm using a kinetic microplate reader (Molecular Devices, Sunnyvale, Calif., USA).

rCHO-2 cells = experiment: Suspension culture of rCHO-2 cells: antibody level by sandwich ELISA; conditions: HY-CDM, Zn around 60-75 μM
Text: as §1
The cell line was inoculated at a density of 4×10^5 cells/ml and cultured in an Erlenmeyer flask with a 30 ml/125 ml working volume on an orbital shaker at 120 rpm under humidified conditions at 37° C. and 5% CO2. […] The subcultured cells were evaluated.
4, 6, 8, 10, and 12 days after cells were inoculated under the experimental conditions, cell culture fluids were sampled, centrifuged at 1,000 rpm (×162 g) for 5 min, and stored at −20° C. before antibody analysis. Antibody levels were measured by sandwich enzyme linked immunosorbent assay (ELISA). […] For antibody level analysis, absorbance values were measured at a wavelength of 450 nm using a kinetic microplate reader (Molecular Devices, Sunnyvale, Calif., USA).

[3] = HY-PFM, trace element individually added in 20-fold amount of control
[4] = commercial CDM-1, 2 and 3, Zn ions enhanced to 60 μM
[5] = HY-CDM, Zn around 60-75 μM, rCHO-1

## O.O.O.O.O.O.O.O=S(=O)([O-])[O-].[Zn+2] [Zn, ZnSO4.7H2O]
rCHO-1 cells [1]; HY-CDM, Zn 60 μM
  cell longevity (cell viability of 80%), times higher than control group: 1.8 times
rCHO-1 cells [1]; HY-PFM and HY-CDM, Zn 60 μM
  live cell densities: 9×10^6 cells/ml
  period for which live cell density was maintained during cell culture: at least 9 days
rCHO-1 cells [1]; HY-PFM, Zn 60 μM
  cell longevity (cell viability of 80%), times higher than control group: 1.4 times
rCHO-1 cells [1]; [3]
  maximum cell density: 1.1×10^7 cells/ml
rCHO-1 cells [1]; Zn 3 μM (control level), CDM
  Cell longevity (day/80% viability): 5.1 ± 0.0 days
  μ: 1.01 ± 0.04 day⁻¹
rCHO-1 cells [1]; Zn 3 μM (control level), PFM
  Cell longevity (day/80% viability): 6.2 ± 0.0 days
  μ: 0.87 ± 0.01 day⁻¹
rCHO-1 cells [1]; Zn 60 μM, CDM
  Cell longevity (day/80% viability): 9.3 ± 0.4 days
  μ: 1.00 ± 0.00 day⁻¹
rCHO-1 cells [1]; Zn 60 μM, PFM
  Cell longevity (day/80% viability): 8.5 ± 0.2 days
  μ: 0.90 ± 0.02 day⁻¹
rCHO-1 cells [1]; Zn ion concentration enhanced to 30-60 μM, recombinant CHO cell lines
  inhibitory effect on cell growth: no inhibitory effect on cell growth
rCHO-1 cells [1]; [4]
  inhibition of cell growth: No inhibition of cell growth was observed
rCHO-1 cells [2]; HY-CDM, Zn 60 μM
  qmAB at the initial stage of cell culture (0-4 days): 5.1 pcd
rCHO-1 cells [2]; [5]
  antibody production compared to control group: 6.6 fold
  antibody production rate (maximum): 440 mg/L
rCHO-1 cells [2]; HY-PFM and HY-CDM, Zn 60 μM
  increase in antibody production compared to control group: ≥ 2 fold
rCHO-1 cells [2]; HY-PFM and HY-CDM, Zn 60 μM vs 3 μM
  qmAB at the initial stage (0-4 days), times those in control group: at least 1.7 times
rCHO-1 cells [2]; HY-PFM, Zn 60 μM
  qmAB at the initial stage of cell culture (0-4 days): 9.4 pcd
rCHO-1 cells [2]; HY-PFM, Zn 45-60 μM
  antibody production (maximum): 360 mg/L
rCHO-1 cells [2]; HY-PFM, Zn 45-60 μM vs control (3 μM)
  antibody production relative to control group: twice
rCHO-1 cells [2]; [3]
  maximum antibody level: 260 mg/L
rCHO-1 cells [2]; Zn 3 μM (control level), CDM
  qmAB (ped, 0-4 days): 3.07 ± 0.19 ped
rCHO-1 cells [2]; Zn 3 μM (control level), CDM, calculated from the results obtained 4-6 days after cell culture
  qmAB (ped, 4-8 days): 1.47 ± 0.10^a ped
rCHO-1 cells [2]; Zn 3 μM (control level), PFM
  qmAB (ped, 0-4 days): 4.99 ± 0.13 ped
  qmAB (ped, 4-8 days): 1.75 ± 0.01 ped
rCHO-1 cells [2]; Zn 60 μM, CDM
  qmAB (ped, 0-4 days): 5.06 ± 0.07 ped
  qmAB (ped, 4-8 days): 3.30 ± 0.01 ped
rCHO-1 cells [2]; Zn 60 μM, PFM
  qmAB (ped, 0-4 days): 9.35 ± 0.11 ped
  qmAB (ped, 4-8 days): 3.74 ± 0.04 ped
rCHO-1 cells [2]; Zn ion concentration enhanced to 30-90 μM, recombinant CHO cell lines
  effectiveness in producing antibody by batch culture: very effective in producing antibody by batch culture
rCHO-1 cells [2]; Zn ions enhanced to 30 μM, protein-free and chemically defined media, recombinant CHO cell lines
  specific production rates of antibody: improved
rCHO-1 cells [2]; both media (HY-PFM, HY-CDM), Zn 60 μM vs 3 μM
  qmAB at the late stage (4-8 days), times higher than control group: 2.1 times
rCHO-1 cells [2]; [4]
  antibody productivities, times higher than control group: 1.2-1.5 times
rCHO-1 cells [2]; commercial CDM-4 (CD OptiCHO), Zn ions enhanced to 60 μM
  cell growth and antibody production: only continuous cell growth and antibody production was observed
rCHO-2 cells
  antibody production compared to control group: 1.3 fold
  antibody production rate (maximum): 210 mg/L
